According to patent US10190093B2, “Artificial oocyte activation” (The Curators of the University of Missouri, priority 2013, dated 2019):
Several values for one entry are separate records, joined by “and”; a condition that tells them apart may be missing. Equal entries are not always repeated. Marks after values point to notes of the source that are not given here.

Tests used:
[1] = test system: Metaphase II porcine oocytes; assay: Parthenogenetic activation of porcine oocytes by TPEN alone; assay type: cell-based, pig
Method: Oocytes were obtained from either pre-pubertal gilt ovaries from an abattoir (Farmland Foods Inc., Milan, Mo.), or sow-derived oocytes that were purchased from Applied Reproductive Technology (Madison, Wis.). Immature oocytes from gilt ovaries were aspirated from medium size (3-6 mm) follicles by using an 18 gauge hypodermic needle attached to a 10 mL syringe. Oocytes with evenly dark cytoplasm and intact surrounding cumulus cells were then selected for maturation. Around 50 cumulus oocyte complexes were place in a well containing 500 μL of maturation medium, TCM 199 (Invitrogen, Grand Island, N.Y.) with 3.05 mM glucose, 0.91 mM sodium pyruvate, 0.57 mM cysteine, 10 ng/mL epidermal growth factor (EGF), 0.5 mg/mL luteinizing hormone (LH), 0.5 mg/mL follicle stimulating hormone (FSH), 10 ng/mL gentamicin (APP Pharm, Schaumburg, Ill.), and 0.1% polyvinyl alcohol (PVA) for 42-44 hr at 38.5° C., 5% CO2, in humidified air. The oocytes from sows were shipped overnight in maturation medium (TCM199 with 2.9 mM Hepes, […], 10 ng/mL EGF, 0.5 mg/mL p-FSH, 0.91 mM pyruvate, 0.5 mM cysteine, 10% porcine follicular fluid, 25 ng/mL gentamicin) and transferred into fresh medium at 24 hr. At the end of the maturation, the surrounding cumulus cells were removed from the oocytes by vortexing for 3 min in the presence of 0.1% hyaluronidase. Oocytes with a visible polar body were selected in manipulation medium (TCM199 with 0.6 mM NaHCO3, 2.9 mM Hepes, 30 mM NaCl, 10 ng/mL gentamicin, and 3 mg/mL bovine serum albumin [BSA]; and osmolarity of 305) and then used for the experiments. Different oocyte activation methods were used for the experiments. As conventional activation methods, either electrical or chemical activation was used. For electrical activation, mature oocytes were activated in activation medium (0.3 M mannitol, 1.0 mM CaCl2, 0.1 mM MgCl2, and 0.5 mM Hepes) by two direct-current (DC) pulses (1-sec interval) at 1.2 kV/cm for 30 μsec (using BTX Electro Cell Manipulator, Harvard Apparatus, Holliston, Mass.). […] For TPEN mediated activation, mature oocytes were incubated in TL-Hepes media with various concentrations of TPEN for different durations. […] At the end of the culture, where applicable, the frequency of cleaved embryos and blastocysts, and total cell number in the blastocysts were recorded. Hoechst 33342 (1.2 mg/mL) was used to stain nuclei and the embryos were then evaluated by epi-fluorescence microscopy. Metaphase II porcine oocytes were incubated in vitro with TPEN to determine if the concentration/duration of 100 μM of TPEN for 45 min, as described in the mouse study by Suzuki, et al. (Development 137, 2659-2669, 2010) had any effect on pig oocytes. […] A wide range of TPEN concentrations/durations was tested to identify an optimum concentration of TPEN that can activate pig oocytes; 100 μM, 200 μM, and 250 μM and 30 min-2.5 hours of duration were tested (Table 1). Optimum embryo development was achieved by using 200 μM TPEN for 30 min.

porcine oocytes = assay: TPEN as main oocyte activating reagent after a smaller Ca2+ increase (electroporation in 0.1 mM Ca2+); assay type: cell-based, pig; details: for Day 6 Blastocysts (%) / Day 7 Blastocysts (%): 0.1 mM Ca2+ electroporation
Method: Oocytes were obtained from either pre-pubertal gilt ovaries from an abattoir (Farmland Foods Inc., Milan, Mo.), or sow-derived oocytes that were purchased from Applied Reproductive Technology (Madison, Wis.). Immature oocytes from gilt ovaries were aspirated from medium size (3-6 mm) follicles by using an 18 gauge hypodermic needle attached to a 10 mL syringe. Oocytes with evenly dark cytoplasm and intact surrounding cumulus cells were then selected for maturation. Around 50 cumulus oocyte complexes were place in a well containing 500 μL of maturation medium, TCM 199 (Invitrogen, Grand Island, N.Y.) with 3.05 mM glucose, 0.91 mM sodium pyruvate, 0.57 mM cysteine, 10 ng/mL epidermal growth factor (EGF), 0.5 mg/mL luteinizing hormone (LH), 0.5 mg/mL follicle stimulating hormone (FSH), 10 ng/mL gentamicin (APP Pharm, Schaumburg, Ill.), and 0.1% polyvinyl alcohol (PVA) for 42-44 hr at 38.5° C., 5% CO2, in humidified air. […] At the end of the maturation, the surrounding cumulus cells were removed from the oocytes by vortexing for 3 min in the presence of 0.1% hyaluronidase. Oocytes with a visible polar body were selected in manipulation medium (TCM199 with 0.6 mM NaHCO3, 2.9 mM Hepes, 30 mM NaCl, 10 ng/mL gentamicin, and 3 mg/mL bovine serum albumin [BSA]; and osmolarity of 305) and then used for the experiments. Different oocyte activation methods were used for the experiments. As conventional activation methods, either electrical or chemical activation was used. For electrical activation, mature oocytes were activated in activation medium (0.3 M mannitol, 1.0 mM CaCl2, 0.1 mM MgCl2, and 0.5 mM Hepes) by two direct-current (DC) pulses (1-sec interval) at 1.2 kV/cm for 30 μsec (using BTX Electro Cell Manipulator, Harvard Apparatus, Holliston, Mass.). […] For TPEN mediated activation, mature oocytes were incubated in TL-Hepes media with various concentrations of TPEN for different durations. […] At the end of the culture, where applicable, the frequency of cleaved embryos and blastocysts, and total cell number in the blastocysts were recorded. Hoechst 33342 (1.2 mg/mL) was used to stain nuclei and the embryos were then evaluated by epi-fluorescence microscopy. […] The ability of TPEN as the main activating reagent was therefore tested. […] Then the oocytes were incubated with various concentrations (1 μM, 5 μM, 10 μM, 100 μM and 200 μM) and durations (10 minutes, 20 minutes, 30 minutes, 1 hour, 2 hours, and overnight) of TPEN. […] Optimal oocyte activation was observed when oocytes were activated by a smaller Ca^2+ signal followed by incubating in 200 μM TPEN for 30 min.

Compound: c1ccc(CN(CCN(Cc2ccccn2)Cc2ccccn2)Cc2ccccn2)nc1 [TPEN, N,N,N′,N′-tetrakis(2-pyridylmethyl)ethane-1,2-diamine]
- Frequency of forming blastocysts on day 7 ([1]; 100 μM of TPEN for 45 min): 13%
- blastocyst formation on day 5 ([1]; 100 μM of TPEN for 45 min): No blastocyst formation was observed
- expanded blastocysts on day 7 ([1]; 100 μM of TPEN for 45 min): no expanded blastocysts
- toxic effect on embryo development ([1]; 250 μM TPEN over 2.5 hours): toxic effect
- % blastocysts ([1]; TPEN alone, 100 μM, 2 hr): 12.0%
- % blastocysts ([1]; TPEN alone, 200 μM, 30 min): 23.0%
- total number of nuclei in blastocysts ([1]; TPEN alone, 200 μM, 30 min): 27.2±1.92
- % blastocysts ([1]; TPEN alone, 200 μM, 1 hr): 20.0%
- % blastocysts ([1]; TPEN alone, 250 μM, 2 hr): 10.0%
- cell numbers in day 7 blastocysts (porcine oocytes; 1 μM TPEN overnight): 24.80±7.84
- number of blastocysts at day 6 and 7 (porcine oocytes; 1 μM TPEN overnight): increased number of blastocysts
- cell numbers in day 7 blastocysts (porcine oocytes; 10 μM TPEN for 1 hour): 30.17±5.97
- cell numbers in day 7 blastocysts (porcine oocytes; 10 μM TPEN for 2 hours): 29.63±10.47
- cell numbers in day 7 blastocysts (porcine oocytes; 100 μM TPEN for 20 minutes): 50.75±17.94
- Day 6 Blastocysts (%) (porcine oocytes; then TPEN 10 μM, 30 min): 0% and 0^b %
- Day 7 Blastocysts (%) (porcine oocytes; then TPEN 10 μM, 30 min): 5^b %
- Day 6 Blastocysts (%) (porcine oocytes; then TPEN 10 μM, 1 hour): 15^a %
- Day 7 Blastocysts (%) (porcine oocytes; then TPEN 10 μM, 1 hour): 22.5^a %
- Day 6 Blastocysts (%) (porcine oocytes; then TPEN 10 μM, 2 hours): 15^a %
- Day 7 Blastocysts (%) (porcine oocytes; then TPEN 10 μM, 2 hours): 25^a %
- Day 6 Blastocysts (%) (porcine oocytes; then TPEN 100 μM, 10 min): 15^a %
- Day 7 Blastocysts (%) (porcine oocytes; then TPEN 100 μM, 10 min): 15^a %
- Day 6 Blastocysts (%) (porcine oocytes; then TPEN 100 μM, 20 min): 25^a %
- Day 7 Blastocysts (%) (porcine oocytes; then TPEN 100 μM, 20 min): 30^a %
- Day 6 Blastocysts (%) (porcine oocytes; then TPEN 200 μM, 30 min): 37.04^c %
- Day 7 Blastocysts (%) (porcine oocytes; then TPEN 200 μM, 30 min): 41.98^c %
- Day 6 Blastocysts (%) (porcine oocytes; then TPEN 200 μM, 1 hour): 18.75^a %
- Day 7 Blastocysts (%) (porcine oocytes; then TPEN 200 μM, 1 hour): 27.5^a %
